Measured values: US7884136B2, “Modified-release formulations of a bupropion salt” (Biovail Laboratories International S.R.L., priority 2005, dated 2011)

Tests used:
[1] = Shelf life stability program of bupropion HBr, 25° C./60% RH, 3 and 6 months, HPLC; assay type: physicochemical; details: Batch D00896, 25° C., R.H. 60%; for Chromatographic purity B) (HPLC) 4) 2-N-(tert-Butyl)-aminopropiophenone / Chromatographic purity B) (HPLC) 5) single unknown impurity (each): LOQ 0.02%, LOD 0.002%; for Chromatographic purity A) (HPLC) 1) 3′-Chloropropiophenone / Chromatographic purity A) (HPLC) 3) 3′-Chlorobenzoic acid / Chromatographic purity A) (HPLC) 2) 3′-Chloro-2-bromopropiophenone: LOQ 0.05%; for Chromatographic purity A) (HPLC) 1) 3′-Chloropropiophenone / Chromatographic purity A) (HPLC) 3) 3′-Chlorobenzoic acid: LOD 0.01%; for Chromatographic purity A) (HPLC) 2) 3′-Chloro-2-bromopropiophenone: LOD 0.04%
Description: The stability of bupropion HBr was studied over a longer term under conditions meant to approximate standard storage or shelf conditions. Samples were prepared in closed containers and subjected to long-term storage at 25° C.+2° C. and 60%+5% RH in a stability chamber. The samples were analyzed by HPLC prior to being placed in the stability chamber (time 0) and after 3 months and 6 months. The amounts of the main degradation products present at time 0 were compared with the amounts present at 3 months and 6 months. As shown in Table 77-79 three different batches of bupropion HBr were tested. As in Example 10 each sample was tested under two HPLC assay conditions to identify 6 impurities or groups of impurities as described in Example 10.

[2] = Accelerated stability study of bupropion HBr, closed bottles, 40° C./75% RH, 3 and 6 months, HPLC; assay type: physicochemical; details: Batch D00894, 40° C., R.H. 75%; for Chromatographic purity B) (HPLC) 4) 2-N-(tert-Butyl)-aminopropiophenone / Chromatographic purity B) (HPLC) 5) single unknown impurity (each): LOQ 0.02%, LOD 0.002%; for Chromatographic purity A) (HPLC) 1) 3′-Chloropropiophenone / Chromatographic purity A) (HPLC) 3) 3′-Chlorobenzoic acid / Chromatographic purity A) (HPLC) 2) 3′-Chloro-2-bromopropiophenone: LOQ 0.05%; for Chromatographic purity A) (HPLC) 1) 3′-Chloropropiophenone / Chromatographic purity A) (HPLC) 3) 3′-Chlorobenzoic acid: LOD 0.01%; for Chromatographic purity A) (HPLC) 2) 3′-Chloro-2-bromopropiophenone: LOD 0.04%
Description: The samples were prepared in closed bottles and placed in the stability chamber. HPLC analysis was conducted on the samples prior to placing them in the stability chamber (time 0), and after 3 months and 6 months. The amounts of the main degradation products present at time 0 were compared with those amounts present after 3 months and 6 months. […] For each sample tested, at each time period, two different HPLC assays were run. The first assay labelled chromatographic purity A, measured the percentage of three impurities 3′chloropropiophenone, 3′-Chloro-2-bromopropiophenone and 3′-Chlorobenzoic acid. The second assay, labelled chromatographic purity B, measured the percentage of 2-N-(tert-Butyl)-aminopropiophenone, a single unknown impurity and the total unknown impurities.

With `Br.CC(NC(C)(C)C)C(=O)c1cccc(Cl)c1` (stereo not drawn) [Bupropion•HBr] the “Assay (HPLC)” value ([1]; 9 months) was 99.4 % on d.b, the “Chromatographic purity (HPLC: A + B) Total impurities” value ([1]; 9 months) was “n.q” and the “Chromatographic purity B) (HPLC) 6) total unknown impurities” value ([1]; 9 months) was 6) n.q. For the same compound, the “Description (white or almost white crystalline powder)” value (shortened to “Description”) ([1]; 9 months) was “conform”, the “Identification IR, HPLC” value ([1]; 9 months) was “positive” and the “Water content (K.F.)” value ([1]; 9 months) was 0.04%. For the same compound, the “Chromatographic purity B) (HPLC) 4) 2-N-(tert-Butyl)-aminopropiophenone” value ([1]; 9 months) was 4) n.d, the “Chromatographic purity B) (HPLC) 5) single unknown impurity (each)” value ([1]; 9 months) was 5) n.q and the “Chromatographic purity A) (HPLC) 1) 3′-Chloropropiophenone” value ([1]; 9 months) was 1) n.q. The “Chromatographic purity A) (HPLC) 3) 3′-Chlorobenzoic acid” value ([1]; 9 months) was 3) n.q, the “Chromatographic purity A) (HPLC) 2) 3′-Chloro-2-bromopropiophenone” value ([1]; 9 months) was 2) n.d and the “Assay (HPLC)” value ([1]; 12 months) was 100.3 % on d.b. The “Chromatographic purity (HPLC: A + B) Total impurities” value ([1]; 12 months) was 0.1%, the “Chromatographic purity B) (HPLC) 6) total unknown impurities” value ([1]; 12 months) was 6) 0.07% and the “Description” value ([1]; 12 months) was “conform”. For the same compound, the “Identification IR, HPLC” value ([1]; 12 months) was “positive”, the “Water content (K.F.)” value ([1]; 12 months) was 0.03% and the “Chromatographic purity B) (HPLC) 4) 2-N-(tert-Butyl)-aminopropiophenone” value ([1]; 12 months) was 4) 0.05%. The “Chromatographic purity B) (HPLC) 5) single unknown impurity (each)” value ([1]; 12 months) was 5) 0.07%, the “Chromatographic purity A) (HPLC) 1) 3′-Chloropropiophenone” value ([1]; 12 months) was 1) n.d and the “Chromatographic purity A) (HPLC) 3) 3′-Chlorobenzoic acid” value ([1]; 12 months) was 3) n.q. The “Chromatographic purity A) (HPLC) 2) 3′-Chloro-2-bromopropiophenone” value ([1]; 12 months) was 2) n.d, the “Assay (HPLC)” value ([1]; time 0) was 99.3 % on d.b and the “Chromatographic purity (HPLC: A + B) Total impurities” value ([1]; time 0) was 0.1%. The “Chromatographic purity B) (HPLC) 6) total unknown impurities” value ([1]; time 0) was 6) 0.05%, the “Description” value ([1]; time 0) was “conform” and the “Identification IR, HPLC” value ([1]; time 0) was “positive”. For the same compound, the “Water content (K.F.)” value ([1]; time 0) was 0.06%, the “Chromatographic purity B) (HPLC) 4) 2-N-(tert-Butyl)-aminopropiophenone” value ([1]; time 0) was 4) 0.04% and the “Chromatographic purity B) (HPLC) 5) single unknown impurity (each)” value ([1]; time 0) was 5) 0.05%. For the same compound, the “Chromatographic purity A) (HPLC) 1) 3′-Chloropropiophenone” value ([1]; time 0) was 1) n.d, the “Chromatographic purity A) (HPLC) 3) 3′-Chlorobenzoic acid” value ([1]; time 0) was 3) n.q and the “Chromatographic purity A) (HPLC) 2) 3′-Chloro-2-bromopropiophenone” value ([1]; time 0) was 2) n.d. The “Assay (HPLC)” value ([2]; 3 month) was 99.6 % on d.b, the “Chromatographic purity (HPLC: A + B) Total impurities” value ([2]; 3 month) was 0.1% and the “Chromatographic purity B) (HPLC) 6) total unknown impurities” value ([2]; 3 month) was 6) 0.06%. The “Description” value ([2]; 3 month) was “conform”, the “Identification IR, HPLC” value ([2]; 3 month) was “positive” and the “Water content (K.F.)” value ([2]; 3 month) was 0.07%. For the same compound, the “Chromatographic purity B) (HPLC) 4) 2-N-(tert-Butyl)-aminopropiophenone” value ([2]; 3 month) was 4) 0.03%, the “Chromatographic purity B) (HPLC) 5) single unknown impurity (each)” value ([2]; 3 month) was 5) 0.04% and the “Chromatographic purity A) (HPLC) 1) 3′-Chloropropiophenone” value ([2]; 3 month) was 1) n.q. For the same compound, the “Chromatographic purity A) (HPLC) 3) 3′-Chlorobenzoic acid” value ([2]; 3 month) was 3) n.q, the “Chromatographic purity A) (HPLC) 2) 3′-Chloro-2-bromopropiophenone” value ([2]; 3 month) was 2) n.d and the “Assay (HPLC)” value ([2]; 6 months) was 99.7 % on d.b. For the same compound, the “Chromatographic purity (HPLC: A + B) Total impurities” value ([2]; 6 months) was 0.1%, the “Chromatographic purity B) (HPLC) 6) total unknown impurities” value ([2]; 6 months) was 6) 0.02% and the “Description” value ([2]; 6 months) was “conform”. The “Identification IR, HPLC” value ([2]; 6 months) was “positive”, the “Water content (K.F.)” value ([2]; 6 months) was 0.08% and the “Chromatographic purity B) (HPLC) 4) 2-N-(tert-Butyl)-aminopropiophenone” value ([2]; 6 months) was 4) 0.04%. The “Chromatographic purity B) (HPLC) 5) single unknown impurity (each)” value ([2]; 6 months) was 5) n.q, the “Chromatographic purity A) (HPLC) 1) 3′-Chloropropiophenone” value ([2]; 6 months) was 1) 0.05% and the “Chromatographic purity A) (HPLC) 3) 3′-Chlorobenzoic acid” value ([2]; 6 months) was 3) n.q. For the same compound, the “Chromatographic purity A) (HPLC) 2) 3′-Chloro-2-bromopropiophenone” value ([2]; 6 months) was 2) n.d, the “Assay (HPLC)” value ([2]; time 0) was 99.6 % on d.b and the “Chromatographic purity (HPLC: A + B) Total impurities” value ([2]; time 0) was 0.1%. For the same compound, the “Chromatographic purity B) (HPLC) 6) total unknown impurities” value ([2]; time 0) was 6) 0.04%, the “Description” value ([2]; time 0) was “conform” and the “Identification IR, HPLC” value ([2]; time 0) was “positive”. For the same compound, the “Water content (K.F.)” value ([2]; time 0) was 0.05%, the “Chromatographic purity B) (HPLC) 4) 2-N-(tert-Butyl)-aminopropiophenone” value ([2]; time 0) was 4) 0.04% and the “Chromatographic purity B) (HPLC) 5) single unknown impurity (each)” value ([2]; time 0) was 5) 0.04%. The “Chromatographic purity A) (HPLC) 1) 3′-Chloropropiophenone” value ([2]; time 0) was 1) n.d, the “Chromatographic purity A) (HPLC) 3) 3′-Chlorobenzoic acid” value ([2]; time 0) was 3) n.q and the “Chromatographic purity A) (HPLC) 2) 3′-Chloro-2-bromopropiophenone” value ([2]; time 0) was 2) n.d.
